Measurements from US20080249144A1, “Preventive or Therapeutic Agent for Chronic Inflammatory Lung Disease” (KAKEN PHARMACEUITICAL CO., LTD., priority 2004, published 2008).

Columns and labels:
human neutrophils = assay: LTB4-induced human neutrophil migration (48-well modified Boyden chamber); assay type: cell-based
Procedure: Leukocytes were collected from human peripheral blood samples (20 mL of venous blood was taken by a doctor) were obtained from 4 healthy adults (male). They received sufficient information on the purpose of the experiment and gave informed consent in advance. An equivalent amount of 3% dextran (M.W. 208000) saline solution was added to the heparinized blood thus obtained and the mixture was kept to stand for one hour. Thereafter, the supernatant was collected and centrifuged at 150 g for 5 minutes at 4° C. The supernatant was discarded and the pellet was repeatedly twice haemolysed. To explain in detail, 4 mL of an ice-cooled 0.2% NaCl solution was added, quickly suspended and allowed to stand for 20 to 30 seconds. Thereafter, 4 mL of an ice-cooled 1.6% NaCl solution was added to the suspension solution to return the solution to the isotonic condition. After centrifugation was performed at 150 g for 5 minutes at 4° C., the same treatment was repeated. The cell pellet obtained was finally suspended in a buffer (Hank's solution containing 0.1% FBS) and subjected to an experiment.
This experiment was performed using a 48-well modified Boyden chamber (Neuro Probe). To explain in detail, the wells of the bottom plate of the chamber were filled with 25 μl of vehicle solution containing 10 nmol/L of LTB4. A polycarbonate filter (PVP-free, pore size: 3 μm) was placed on the bottom plate. The top plate of the chamber was mounted and each well of the upper plate was filled with 45 μL of a leukocyte suspension solution (1.0×10^6 cells/mL) prepared with the buffer. Immediately after that, 5 μL of a test substance (10 fold concentration of a final concentration) was added to the wells. […] The numbers of cells were counted in 4 visual fields (×400) per well and the average of them was regarded as the number of migrated cells. Each test substance was evaluated using 3 wells. The average value of these wells was calculated and regarded as the value of each substance.
The average and standard deviation of each group were calculated. […]

[1] = tested on: PPE-induced pulmonary emphysema model; assay: PPE-induced pulmonary emphysema model in mice; assay type: in vivo
Procedure: Eight-week old C57BL strain mice were anaesthetized with isoflurane. PPE (25 μg) was administered once to the lung through a cannula inserted into the trachea through the pharyngolarynx to induce a pulmonary damage. To a non-PPE administration group (normal group), saline was administered instead. In a preventive administration experiment (hereinafter referred to as a “preventive experiment”) of KP-496, drug effect was evaluated on inflammatory cells in BALF 2 days after PPE administration and by histopathological examination of the lung after 10 days. In a therapeutic administration experiment of KP-496 (hereinafter referred to as a “therapeutic experiment”), the drug effect was evaluated by histo-pathological examination of the lung and weight of the organs 14 days after PPE administration.
The medicament administration period was set from the PPE administration date to the day before autopsy in the preventive experiment and set from a predetermined day (KP-496A group: PPE administration date, KP-496B group: 3 days after PPE administration date, KP-496C group: 7 days after PPE administration date) to the day before autopsy in the therapeutic experiment. Inhalation administration of KP-496 was performed in the same manner as in Example 2. Furthermore, the normal group and the control group were allowed to spontaneously inhale saline, instead. A medicament for use in comparison, prednisolone, was orally administered in a dose of 5 mg/kg twice a day. A group consisted of 10 animals.
The animals were anaesthetized with pentobarbital and killed by exsanguination. Immediately after that, BAL of the right and left lungs was performed with 2 ml of saline. In the same manner as in Example 2, the total number of cells and the number of cells according to the cell type in the BALE were determined.
The lung was excised out from the animal killed by exsanguination in the same manner as in the above, the weight of the lung was measured. The lung was fixed in 10 vol % neutral buffered formalin solution. A pathological tissue sample was prepared in accordance in a general way. The degree of the damage of the lung tissue observed was evaluated by scoring in the same manner as in Example 2. Furthermore, the average of alveolar-space area of the entire lung tissue sample was computationally measured with image-processing software.
The average value and standard deviation of each group were calculated. Comparison between the normal group and the control group was performed by the Levene's test for equal variance and then, the t-test was performed depending on the results. To compare the control group and test substance administration groups, equal variance was first confirmed by the Levene's test and then multiple comparisons were performed in accordance with the Dunnett's test. Note that evaluation parameters with unequal variance and the damage score of the lung tissue were analyzed by nonparametric Mann-Whitney test. The significance level employed was […].

[2] = 2 days after PPE, compared to control group
[3] = preventive experiment, 10 days after PPE

Structure (SMILES): CC(C)c1csc(COc2cccc(CN(CCCCNS(=O)(=O)c3ccc(Cl)cc3)S(=O)(=O)c3ccccc3C(=O)O)c2)n1 [KP-496, 2-{N-[4-(4-chlorobenzenesulfonylamino)butyl]-N-{3-[(4-isopropyl-2-thiazolyl)methoxy]benzyl}}sulfamoylbenzoic acid]
- suppression of LTB4-induced cell migration, concentration dependence (human neutrophils; 10 nmol/L LTB4, human leukocytes, 1.5 hours): suppressed the cell migration in a concentration dependent manner
- suppression of LTB4-induced neutrophil migration (human neutrophils; test substance 1 μmol/L, 10 nmol/L LTB4): significantly suppressed
- total number of cells in BALF ([1]; 2 days after PPE administration, preventive experiment): 3.1±0.8 ×10^5 cells
- number of eosinophils in BALF [1, 2]: lower values than in the control group
- number of macrophages in BALF [1, 2]: significantly decreased
- number of neutrophils in BALF [1, 2]: significantly decreased
- weights of the organs (liver, spleen and thymus gland) ([1]; mouse, in vivo): No effect was observed
- emphysema-like pathology of the lung (histopathology) [1, 3]: the pathologic lesion was localized and mild
- increase in lung weight [1, 3]: significantly suppressed
- damage score of the lung ([1]; preventive experiment, 10 days after PPE, compared with control group): significantly decreased
- increase of the average of the alveolar-space area ([1]; preventive experiment, compared to control): significantly suppressed
- lung weight ([1]; therapeutic experiment, 14 days after PPE, despite difference of the administration initiation date): lower values than the control group
- damage score of the lung ([1]; therapeutic experiment, 14 days after PPE, each of the groups (start day 0, 3 or 7)): significantly decreased
- lung weight, difference to control group ([1]; therapeutic experiment, administration started from PPE administration date): a significant difference was observed
- increase of the average of the alveolar-space area ([1]; therapeutic experiment, each of the groups (start day 0, 3 or 7)): significantly suppressed
